These results are taken from article PMC5428521, “Identification of a Novel, Small Molecule Partial Agonist for the Cyclic AMP Sensor, EPAC1” (Scientific Reports, 2017).

Read-outs that look alike come from different tables or passages of the source.

The term Kd denotes a measure of binding affinity in units of concentration. Lower therefore signals higher affinity. A word on the IC50: it is the point on the concentration scale where inhibition reaches its midpoint.

Type in all cases: binding
Experiment [1] addresses T1, EPAC1-CNB (Homo sapiens, UniProt O95398).
T1 construct: EPAC1-CNB (amino acids 169–318 of EPAC1); made in house; host or cells: BL-21 Escherichia coli (pGEX-6P-1)
T1 sequence (O95398 169-318 isoform O95398-3): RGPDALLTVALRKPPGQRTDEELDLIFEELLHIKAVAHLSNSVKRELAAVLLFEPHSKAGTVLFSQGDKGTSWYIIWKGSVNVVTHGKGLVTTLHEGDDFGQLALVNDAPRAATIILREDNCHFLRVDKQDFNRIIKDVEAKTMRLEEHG
Briefly: 8-NBD-cAMP competition assay with EPAC1-CNB. To be noted: for IC50: 7-point dose response, 75 µM top concentration, 0.75% DMSO. The procedure:
Optimisation of assay conditions was performed in 96 well black assay plates (Greiner). Comparison of reference molecules, dose response curves and pilot screen were done in black, low volume 384 assay plates (Greiner). Liquids were dispensed using a Biomek Fx laboratory automation workstation with a 96-multichannel pipetting head (Beckman Coulter) for optimisation, whereas the Echo® Liquid Handler (Labcyte) and Wellmate automated dispenser (Thermo Matrix) were employed for pilot screens (see library screening).
This was done using the optimised assay conditions developed during the study. Library compounds were transferred from pre-prepared, 1000x stock Echo® 384 LDV source plates (Labcyte) into black, low volume 384 assay plates (Greiner) at 25 nl volumes, using an Echo® Liquid Handler (Labcyte), maintaining 0.1–1% DMSO throughout. EPAC1-CNB (0.8 µM) was immediately added using a Wellmate automated dispenser (Thermo Matrix). Plates were centrifuged at 800 rpm, 10 s, and then incubated for 30 minutes, RT, to promote compound-protein complex formation. […] The assay was incubated at room temperature and the fluorescence intensity at 480/535 nm (ex/em) was measured after 4–15 hours using the Envision plate reader.

In experiment [2] the target is T1, EPAC1-CNB. The experiment in a line: Ligand observed NMR (1D and waterLOGSY) with EPAC1-CNB. The conditions noted are these: compound 50 µM, protein 2.5 µM. The text has this:
(§1) Given that I942 seems to exert selective agonist properties against EPAC1, but not EPAC2, we next sought to validate whether our isolated ligands can interact with EPAC1 and EPAC2. Ligand observed nuclear magnetic resonance (NMR) is a valuable tool for the identification and validation of small molecule ligands. We therefore used one dimensional proton (1D) and water-ligand observed by gradient spectroscopy (waterLOGSY) NMR to confirm the ability of I942 and I178 to bind to the purified CNBs of EPAC1 and EPAC2, in comparison with the commercially available EPAC1 antagonist, ESI-09[32]. In order to assess ligand/CNB interaction, 1D and waterLOGSY experiments were performed on each compound (50 µM) in the presence or absence of 2.5 µM EPAC-CNB. In the absence of protein, each test compound produced a well-resolved 1D spectrum and a region of each spectrum was chosen to display distinctive spectral peaks originating from the ligand (Fig. 6). In the absence of protein, the corresponding waterLOGSY peaks were small, or absent, due to the negligible signal produced by saturation transfer from water to the freely tumbling small molecule. […] In waterLOGSY spectra, protein-mediated saturation transfer can only occur if the protein-ligand complex has a substantial lifetime. […]
(§2) (A) One dimensional proton (1D) and waterLOGSY (WL) spectra were performed on samples containing hit compound I942 (50 µM) in the absence and presence of EPAC1-CNB, EPAC2-CNB or GST alone, as indicated (2.5 µM). […] Interaction between compound and protein was assessed through comparison of the compound alone and protein-compound sample spectra. […]
(§3) All NMR spectra were recorded on a Bruker AVANCE IIIHD 600 spectrometer equipped with a TCI cryoprobe at 285 K. Test compounds were prepared in deuterated DMSO and diluted to given experimental concentrations in NMR buffer (20 mM Na2PO4, pH 7.0, 50 mM NaCl, 0.1% (w/v) NaN3, 5% (v/v) D2O) with a final DMSO concentration below 0.1%. […] One dimensional proton (1D) and waterLOGSY spectra were recorded for all compounds tested, using pulse sequences as previously described. […]

The target in a further experiment is T2, EPAC2-CNB (Mus musculus, UniProt Q9EQZ6).
T2 construct: EPAC2-CNB (amino acids 304–453 of EPAC2); made in house; host or cells: BL-21 Escherichia coli (pGEX-6P-1)
T2 sequence (Q9EQZ6 304-453 isoform Q9EQZ6-3): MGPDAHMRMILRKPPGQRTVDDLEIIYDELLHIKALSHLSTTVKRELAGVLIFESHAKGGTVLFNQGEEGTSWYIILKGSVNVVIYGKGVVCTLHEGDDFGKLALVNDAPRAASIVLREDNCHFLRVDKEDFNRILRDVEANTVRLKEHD
Briefly: Ligand observed NMR (1D and waterLOGSY) with EPAC2-CNB. The conditions noted are these: compound 50 µM, protein 2.5 µM.
Description: as §1, §2, §3

The molecule `Cc1ccc(S(=O)(=O)NC(=O)COc2ccc3ccccc3c2)c(C)c1` [I942, N-(2,4-dimethylbenzenesulfonyl)-2-(naphthalen-2-yloxy)acetamide] had a Kd at EPAC1-CNB [1] of about 40 µM. The molecule further yielded a half-maximal inhibitory concentration (IC50) on EPAC1-CNB [1] (IC50, 8-NBD-cAMP binding assay) of about 35 µM. The “affinity, fold lower than that of cAMP” value on EPAC1-CNB [1] (competition assay, isolated CNB domain) is reported as “about 10 fold”. In addition, the NMR interaction result on EPAC1-CNB [2] is “Strong, Specific Interaction”; at EPAC2-CNB it was “Strong, Specific Interaction”.
With `O=C(COc1ccc2ccccc2c1)NS(=O)(=O)c1ccccc1` [I178, N-(benzenesulfonyl)-2-(naphthalen-2-yloxy)acetamide], the IC50 on EPAC1-CNB [1] (read-out: IC50, 8-NBD-cAMP binding assay) was about 40 µM. Besides, the NMR interaction entry is on record as “Strong, Specific Interaction” at EPAC1-CNB [2] and “Weak, specific interaction” at EPAC2-CNB.
